The results in this text go back to PubChem BioAssay AID1259407 (Chemical Carcinogenesis Research Information System (CCRIS), 2018).

The test system of the series is CCRIS mutagenicity, Ames/micronucleus/aberration tests. The experiment in a line: CCRIS mutagenicity studies.
[1] abbreviates: Test System: AMES SALMONELLA TYPHIMURIUM, Strain/Indicator: TA97, Metabolic Activation: NONE, Method: PREINCUBATION

Structures are written as SMILES. The source made the active and inactive calls. No rule for the calls is given here.

With `O=c1ccc2cc(O[C@@H]3O[C@H](CO)[C@@H](O)[C@H](O)[C@H]3O)c(O)cc2o1`, the mutagenic call is, setting by setting: (Test System: AMES SALMONELLA TYPHIMURIUM, Strain/Indicator: TA92, Metabolic Activation: NONE, Method: SPOT TEST) “inactive; negative”; (Test System: AMES SALMONELLA TYPHIMURIUM, Strain/Indicator: TA92, Metabolic Activation: RAT, LIVER, S-9, AROCLOR 1254, Method: SPOT TEST) “inactive; negative”; (Test System: AMES SALMONELLA TYPHIMURIUM, Strain/Indicator: TA94, Metabolic Activation: NONE, Method: SPOT TEST) “inactive; negative”; (Test System: AMES SALMONELLA TYPHIMURIUM, Strain/Indicator: TA94, Metabolic Activation: RAT, LIVER, S-9, AROCLOR 1254, Method: SPOT TEST) “inactive; negative”; (Test System: AMES SALMONELLA TYPHIMURIUM, Strain/Indicator: TA97, Metabolic Activation: NONE, Method: SPOT TEST) “inactive; negative”; (Test System: AMES SALMONELLA TYPHIMURIUM, Strain/Indicator: TA97, Metabolic Activation: RAT, LIVER, S-9, AROCLOR 1254, Method: SPOT TEST) “inactive; negative”. The mutagenic call was “inactive; negative” (Test System: AMES SALMONELLA TYPHIMURIUM, Strain/Indicator: TA98, Metabolic Activation: NONE, Method: SPOT TEST); “inactive; negative” (Test System: AMES SALMONELLA TYPHIMURIUM, Strain/Indicator: TA98, Metabolic Activation: RAT, LIVER, S-9, AROCLOR 1254, Method: SPOT TEST); “inactive; negative” (Test System: AMES SALMONELLA TYPHIMURIUM, Strain/Indicator: TA100, Metabolic Activation: NONE, Method: SPOT TEST); “inactive; negative” (Test System: AMES SALMONELLA TYPHIMURIUM, Strain/Indicator: TA100, Metabolic Activation: RAT, LIVER, S-9, AROCLOR 1254, Method: SPOT TEST); “inactive; negative” (Test System: AMES SALMONELLA TYPHIMURIUM, Strain/Indicator: TA102, Metabolic Activation: NONE, Method: SPOT TEST); “inactive; negative” (Test System: AMES SALMONELLA TYPHIMURIUM, Strain/Indicator: TA102, Metabolic Activation: RAT, LIVER, S-9, AROCLOR 1254, Method: SPOT TEST).

For the molecule `CCCCC/C(C=O)=C/c1ccccc1`, the mutagenic call was “inactive; negative” under setting [1]; “inactive; negative” (Test System: AMES SALMONELLA TYPHIMURIUM, Strain/Indicator: TA97, Metabolic Activation: RAT, LIVER, S-9, AROCLOR 1254, Method: PREINCUBATION); “inactive; negative” (Test System: AMES SALMONELLA TYPHIMURIUM, Strain/Indicator: TA102, Metabolic Activation: NONE, Method: PREINCUBATION); “inactive; negative” (Test System: AMES SALMONELLA TYPHIMURIUM, Strain/Indicator: TA102, Metabolic Activation: RAT, LIVER, S-9, AROCLOR 1254, Method: PREINCUBATION).

As for `Cc1ccc(S(=O)(=O)NC2CCCCC2)cc1`, the mutagenic call reads like this: (Test System: AMES SALMONELLA TYPHIMURIUM, Strain/Indicator: TA97, Metabolic Activation: HAMSTER, LIVER, S-9, AROCLOR 1254 (10 OR 30%), Method: PREINCUBATION) “inactive; negative”; under setting [1], “inactive; negative”; (Test System: AMES SALMONELLA TYPHIMURIUM, Strain/Indicator: TA97, Metabolic Activation: RAT, LIVER, S-9, AROCLOR 1254 (10 OR 30%), Method: PREINCUBATION) “inactive; negative”; (Test System: AMES SALMONELLA TYPHIMURIUM, Strain/Indicator: TA98, Metabolic Activation: HAMSTER, LIVER, S-9, AROCLOR 1254 (10 OR 30%), Method: PREINCUBATION) “inactive; negative”; (Test System: AMES SALMONELLA TYPHIMURIUM, Strain/Indicator: TA98, Metabolic Activation: RAT, LIVER, S-9, AROCLOR 1254 (10%), Method: PREINCUBATION) “inactive; negative”; (Test System: AMES SALMONELLA TYPHIMURIUM, Strain/Indicator: TA98, Metabolic Activation: RAT, LIVER, S-9, AROCLOR 1254 (30%), Method: PREINCUBATION) “inactive; negative”. In addition, the mutagenic call reads like this: (Test System: AMES SALMONELLA TYPHIMURIUM, Strain/Indicator: TA100, Metabolic Activation: HAMSTER, LIVER, S-9, AROCLOR 1254 (10 OR 30%), Method: PREINCUBATION) “inactive; negative”; (Test System: AMES SALMONELLA TYPHIMURIUM, Strain/Indicator: TA100, Metabolic Activation: NONE, Method: PREINCUBATION) “inactive; negative”; (Test System: AMES SALMONELLA TYPHIMURIUM, Strain/Indicator: TA100, Metabolic Activation: RAT, LIVER, S-9, AROCLOR 1254 (10%), Method: PREINCUBATION) “inactive; negative”; (Test System: AMES SALMONELLA TYPHIMURIUM, Strain/Indicator: TA100, Metabolic Activation: RAT, LIVER, S-9, AROCLOR 1254 (30%), Method: PREINCUBATION) “inactive; negative”; (Test System: AMES SALMONELLA TYPHIMURIUM, Strain/Indicator: TA1535, Metabolic Activation: HAMSTER, LIVER, S-9, AROCLOR 1254 (10 OR 30%), Method: PREINCUBATION) “inactive; negative”; (Test System: AMES SALMONELLA TYPHIMURIUM, Strain/Indicator: TA1535, Metabolic Activation: NONE, Method: PREINCUBATION) “inactive; negative”. For the same molecule, the mutagenic call (Test System: AMES SALMONELLA TYPHIMURIUM, Strain/Indicator: TA1535, Metabolic Activation: RAT, LIVER, S-9, AROCLOR 1254 (10 OR 30%), Method: PREINCUBATION) was “inactive; negative”; the mutagenic call (Test System: AMES SALMONELLA TYPHIMURIUM, Strain/Indicator: TA1537, Metabolic Activation: HAMSTER, LIVER, S-9, AROCLOR 1254 (30%), Method: PREINCUBATION) is “inactive; negative”; the mutagenic call (Test System: AMES SALMONELLA TYPHIMURIUM, Strain/Indicator: TA1537, Metabolic Activation: NONE, Method: PREINCUBATION) was “inactive; negative”; the mutagenic call (Test System: AMES SALMONELLA TYPHIMURIUM, Strain/Indicator: TA1537, Metabolic Activation: RAT, LIVER, S-9, AROCLOR 1254 (30%), Method: PREINCUBATION) was “inactive; negative”.

In the case of `O=S(c1cc(Cl)cc(Cl)c1O)c1cc(Cl)cc(Cl)c1O`, the mutagenic call by setting is: (Test System: AMES SALMONELLA TYPHIMURIUM, Strain/Indicator: TA97, Metabolic Activation: NONE, Method: STANDARD PLATE) “inactive; negative”; (Test System: AMES SALMONELLA TYPHIMURIUM, Strain/Indicator: TA97, Metabolic Activation: RAT, LIVER, S-9, AROCLOR 1254, Method: STANDARD PLATE) “inactive; negative”; (Test System: AMES SALMONELLA TYPHIMURIUM, Strain/Indicator: TA98, Metabolic Activation: NONE, Method: STANDARD PLATE) “active; positive”; (Test System: AMES SALMONELLA TYPHIMURIUM, Strain/Indicator: TA98, Metabolic Activation: RAT, LIVER, S-9, AROCLOR 1254, Method: STANDARD PLATE) “inactive; negative”; (Test System: AMES SALMONELLA TYPHIMURIUM, Strain/Indicator: TA100, Metabolic Activation: NONE, Method: STANDARD PLATE) “active; positive”; (Test System: AMES SALMONELLA TYPHIMURIUM, Strain/Indicator: TA100, Metabolic Activation: RAT, LIVER, S-9, AROCLOR 1254, Method: STANDARD PLATE) “inactive; negative”. In addition, the mutagenic call was “inactive; negative” (Test System: AMES SALMONELLA TYPHIMURIUM, Strain/Indicator: TA102, Metabolic Activation: NONE, Method: STANDARD PLATE) and “inactive; negative” (Test System: AMES SALMONELLA TYPHIMURIUM, Strain/Indicator: TA102, Metabolic Activation: RAT, LIVER, S-9, AROCLOR 1254, Method: STANDARD PLATE).

With `C=CC1(C)OC(=O)N(c2cc(Cl)cc(Cl)c2)C1=O` (stereo not drawn), the mutagenic call (End Point: IN VITRO MICRONUCLEUS, Test System: HUMAN HEPATOMA CELLS HEPG2, Metabolic Activation: NONE) is “inactive; negative; authors report a slight increase but not statistically significant”.

For the molecule `O=C(CCl)C(Cl)Cl`, the mutagenic call by setting is: (Test System: AMES SALMONELLA TYPHIMURIUM, Strain/Indicator: TA100, Metabolic Activation: NONE, Method: FLUCTUATION TEST) “active; positive”; (Test System: AMES SALMONELLA TYPHIMURIUM, Strain/Indicator: TA100, Metabolic Activation: RAT, LIVER, S-9, AROCLOR 1254, Method: FLUCTUATION TEST) “inactive; negative”.
